From patent publication US10406120B2, “Methods and compositions for treating kidney disorders” (Golden Biotechnology Corporation, priority 2013, dated 2019)

Columns and labels:
[1] = test system: NO; test: FSGS model: NO determination; assay type: in vivo, BALB/c mice; details: FSGS mice
Description: Experiments described herein were performed on 8-week-old female BALB/c mice. The FSGS mice were injected intravenously with a single dose of adriamycin (0.1 mg/10 g body weight). The mice were given Compound 1 six hours before adriamycin injection by gavage daily till sacrifice. BALB/c mice intraperitoneal injected with normal saline were used as normal controls, while ASLN mice given vehicle (corn oil) by gavage were used as disease controls. Mice were killed at day 7, 14, or 21 after disease induction, and spleen, renal cortical tissue, and blood samples collected and stored appropriately until analysis. All animal experiments were performed with the ethical approval of the Institutional Animal Care and Use Committee of The National Defense Medical Center, Taiwan and performed according to the ethical rules in the NIH Guide for the Care and Use of Laboratory Animals.
NO levels in serum were detected with NO Detection kit (iNtRON Biotechnology, Seongnam, Korea), based on diazotization (Griess method), according to the manufacturer's instructions.

[2] = AcP-IgAN model: renal histopathology; assay type: in vivo, B cell-deficient mice; details: AcP-IgAN mice
Description: (§1) B cell-deficient mice (B6.129S2-Igh-6tm1Cgn/J) were obtained from the Academia Sinica (Professor John T. Kung, Institute of Molecular Biology), and maintained at the animal center of the National Defense Medical Center, Taipei, Taiwan. AcP-IgAN was induced in the mice by daily injection of purified IgA anti-phosphorylcholine antibodies and pneumococcal C-polysaccharide (PnC) as described previously (Chao, et al., Kidney Int. 70:283-297; 2006). All animal experiments were performed with the approval of the Institutional Animal Care and Use Committee of The National Defense Medical Center, Taiwan, and were consistent with the NIH Guide for the Care and Use of Laboratory Animals.
For renal histopathology, the tissues were fixed in 10% buffered formalin and embedded in paraffin, and then sections (4 μm) were prepared and stained with hematoxylin and eosin (H&E). The proportion of glomeruli showing proliferation, crescent formation, sclerosis, or peri-glomerular inflammation was counted in 50 randomly sampled glomeruli by light microscopy at the magnification of 400×.

[3] = test system: TGF-β1; test: AcP-IgAN model: renal TGF-β1 mRNA and protein; assay type: in vivo, B cell-deficient mice; details: AcP-IgAN mice
Description: as §1
(§2) For IHC, formalin fixed and paraffin embedded tissue sections or frozen sections were incubated with against IL-6 (R&D Systems, MN), MCP-1 (Santa Cruz, Calif.), F4/80 (monocytes/macrophages; Serotec, N.C.), collagen IV (Southern Biotech, AL), TGF-β1 (Santa Cruz), phopsho-NFκB p65 (Cell Signaling, MA), CD3 (pan-T cell; Serotec), CD4 (T helper cell; BioLegend, CA), CD8 (cytotoxic T cell), CD11b (macrophages/neutrophils), or CD11c (dendritic cells) (BD Biosciences, CA) antibodies. The FITC-conjugated, Alexa Fluor 488-conjugated (Invitrogen, CA) or horseradish peroxidase (HRP) conjugated secondary antibodies (DAKO, Denmark) were then applied to the sections. Hematoxylin or 4′,6-diamidino-2-phenylindole (DAKO) was used in the counter staining for nuclei.
(§3) Total cortical kidney RNA was extracted with TriZOL reagents (Invitrogen) from cortical tissue of the kidney. For first-strand cDNA synthesis, 1.5 μg of total RNA was used in a single-round reverse transcriptase reaction. The reaction mixture consisted of 0.9 μl of Oligo (dT) 12 to 18 primer, 1.0 mM deoxyribonucleotide triphosphate (dNTP), 1 μl first strand buffer, 0.4 mM dithiothreitol, 80 U of RNaseout recombinant ribonuclease inhibitor, and 300 U of superscript II RNase H (Invitrogen). Real-time PCR was performed on an ABI Prism 7700 Sequence Detection System (Applied Biosystems, CA). […]

[4] = test system: Col-IV; test: AcP-IgAN model: renal Col-IV mRNA and protein; assay type: in vivo, B cell-deficient mice; details: AcP-IgAN mice
Description: as §1, §2, §3

[5] = test system: splenocytes; test: AcP-IgAN model: T cell proliferation analysis (thymidine uptake); assay type: in vivo, B cell-deficient mice
Description: as §1
Splenocytes from the mice were prepared as described as above, then were cultured in triplicate in wells (5×10^5 cells in 200 μl/well) in 96-well flat-bottomed microtiter plates previously coated overnight at 4° C. with 0.25 μg/ml of anti-mouse CD3 antibody (BD Biosciences). After 48 hr, the cultures were pulsed with 1 μCi of 3H-methyl thymidine (Amersham Pharmacia Biotech, NJ), harvested 16 hr later, and the incorporated 3H-methyl thymidine measured using a TopCount (Packard, PerkinElmer, MA).

[6] = test system: mononuclear leukocytes; test: AcP-IgAN model: leukocyte infiltration in the kidney (IF/IHC); assay type: in vivo, B cell-deficient mice; details: AcP-IgAN mice
Description: as §1
as §2, with “Hematoxylin or 4′,6-diamidino-2-phenylindole (DAKO) was used in the counter staining for nuclei.” left out

[7] = test system: Nrf2; test: AcP-IgAN model: renal Nrf2 mRNA and protein; assay type: in vivo, B cell-deficient mice; details: AcP-IgAN mice, day 3 until day 28, vs control AcP-IgAN mice
Description: as §1
Nuclear proteins were extracted using a nuclear extract kit (Active Motif, Japan). Phospho-NF-κB p65 and nuclear factor-erythroid-2-related factor 2 (NrF2) were measured in renal tissue nuclear protein extracts using Trans-AM ELISA assay kits (Active Motif), according to the manufacturer's instructions. Renal cytosolic protein extracts using RIPA buffer (Cell signaling). Cytosolic glutathione peroxidase (GPx) (Cayman, Mich.) and cytosolic heme oxygenase-1 (HO-1) (Enzo Life Sciences, NY) were measured using commercial ELISA kits according to the manufacturer's instructions. Both were expressed relative to the protein concentration in the lysate. […]

[8] = test system: IL-18; test: AcP-IgAN model: serum IL-18 ELISA; assay type: in vivo, B cell-deficient mice; details: AcP-IgAN mice, day 28, vs control AcP-IgAN mice
Description: as §1
Serum levels of IL-1β (eBiosceience, CA), IL-6 (eBiosceience), IL-18 (MBL, Japan), and MCP-1 (eBiosceience) were measured using commercial ELISA kits according to the manufacturer's instructions.

[9] = based on a previous study and empirical use (Chang et al. 2008); cited from earlier work
[10] = day 28, vs control AcP-IgAN mice

COC1=C(OC)[C@H](O)[C@H](C/C=C(\C)CC/C=C(\C)CCC=C(C)C)[C@@H](C)C1=O [Compound 1, Antroquinonol]
urine levels of NO ([1]; day 7, among normal control, FSGS+vehicle and FSGS+antroq mice): no detectable difference | serum NO levels ([1]; day 7 to day 21, vs control FSGS mice): significantly suppressed | urine NO levels ([1]; day 14 to day 21, vs control FSGS mice): effectively blunted | renal histopathology ([2]; day 3, vs control AcP-IgAN mice): significantly inhibited | renal lesions (proliferation, crescents, sclerosis, peri-glomerular leukocyte infiltration, tubular atrophy; except glomerular immune deposits) [2, 10]: substantially inhibited | renal mRNA levels of TGF-β1 ([3]; day 3): basal mRNA levels | TGF-beta protein levels in kidney (IHC) [3, 10]: substantially inhibited | renal mRNA expression of TGF-β1 [3, 10]: greatly inhibited | renal mRNA levels of Col-IV ([4]; day 3): basal mRNA levels | Col-IV protein levels in kidney (IHC) [4, 10]: substantially inhibited | renal mRNA expression of Col-IV [4, 10]: greatly inhibited | proliferation of CD3^+ T cell in splenocytes (thymidine uptake) ([5]; AcP-IgAN mice, day 28): near baseline levels of proliferation | proliferation of CD3^+ T cell in splenocytes (thymidine uptake) ([5]; day 3, worded as control AcP-IgAN mice relative to AcP-IgAN+Antroq mice): greatly increased proliferation of CD3^+ T cell in splenocytes compared to that of AcP-IgAN+Antroq mice | infiltration of pan-T cells, neutrophils and monocytes/macrophages in the kidney ([6]; day 3): no detectable signals | infiltration of inflammatory cells (CD3^+, CD4^+, CD8^+, CD11c+, F4/80+, CD11b+) in the kidney ([6]; day 28, vs AcP-IgAN mice): significantly decreased infiltration | renal expression levels of mRNA of Nrf2 [7]: greatly increased | renal expression levels of protein of Nrf2 [7]: greatly increased | serum IL-18 levels [8]: substantial inhibition | effective range [9]: 10-50 mg/kg body weight
